Results taken from ChEMBL document CHEMBL3992552, “Mechanisms of action and structure-activity relationships of cytotoxic flavokawain derivatives” (Bioorg Med Chem, 2017).
Activity calls are given as the source filed them. The calls are words filed in the database; no cut-off is given here.

Assays:
Huh-7 [1] = experiment: Cytotoxicity against human HuH7 cells assessed as cell survival at 50 uM after 48 hrs by Hoechst 33342 staining based assay relative to control; type: functional; conditions: Huh-7, 48 h, read-out: Survival
Caco-2 [2] = experiment: Cytotoxicity against human Caco2 cells assessed as cell survival at 50 uM after 48 hrs by Hoechst 33342 staining based assay relative to control; type: functional; conditions: Caco-2, 48 h, read-out: Survival
MDA-MB-231 [3] = experiment: Cytotoxicity against human MDA-MB-231 cells assessed as cell survival at 50 uM after 48 hrs by Hoechst 33342 staining based assay relative to control; type: functional; conditions: MDA-MB-231, 48 h, read-out: Survival
HCT-116 [4] = experiment: Cytotoxicity against human HCT116 cells assessed as cell survival at 50 uM after 48 hrs by Hoechst 33342 staining based assay relative to control; type: functional; conditions: HCT-116, 48 h, read-out: Survival
PC-3 [5] = experiment: Cytotoxicity against human PC3 cells assessed as cell survival at 50 uM after 48 hrs by Hoechst 33342 staining based assay relative to control; type: functional; conditions: PC-3, 48 h, read-out: Survival
NCI-H727 [6] = experiment: Cytotoxicity against human NCI-H727 cells assessed as cell survival at 50 uM after 48 hrs by Hoechst 33342 staining based assay relative to control; type: functional; conditions: NCI-H727, 48 h, read-out: Survival
HaCaT [7] = experiment: Cytotoxicity against human HaCaT cells assessed as cell survival at 50 uM after 48 hrs by Hoechst 33342 staining based assay relative to control; type: functional; conditions: read-out: Survival
[8] = Cytotoxicity against human fibroblasts assessed as cell survival at 50 uM after 48 hrs by Hoechst 33342 staining based assay relative to control; set-up: species or system Fibroblast; conditions: read-out: Survival
HCT-116 [9] = experiment: Induction of apoptosis in human HCT116 cells harboring wild-type p53 assessed as increase in early apoptosis at 2 times IC50 after 48 hrs by YoPro/propidium iodide/Hoechst staining based assay; type: functional, cell-based
HCT-116 [10] = experiment: Induction of apoptosis in human HCT116 cells harboring wild-type p53 assessed as increase in late apoptosis at 2 times IC50 after 48 hrs by YoPro/propidium iodide/Hoechst staining based assay; type: functional, cell-based
PC-3 [11] = experiment: Induction of apoptosis in human PC3 cells harboring p53 mutant assessed as increase in early apoptosis at 2 times IC50 after 48 hrs by YoPro/propidium iodide/Hoechst staining based assay; type: functional, cell-based
PC-3 [12] = experiment: Induction of apoptosis in human PC3 cells harboring p53 mutant assessed as increase in late apoptosis at 2 times IC50 after 48 hrs by YoPro/propidium iodide/Hoechst staining based assay; type: functional, cell-based
MDA-MB-231 [13] = experiment: Induction of apoptosis in human MDA-MB-231 cells harboring p53 mutant assessed as increase in early apoptosis at 2 times IC50 after 24 hrs by YoPro/propidium iodide/Hoechst staining based assay; type: functional, cell-based
MDA-MB-231 [14] = experiment: Induction of apoptosis in human MDA-MB-231 cells harboring p53 mutant assessed as increase in late apoptosis at 2 times IC50 after 24 hrs by YoPro/propidium iodide/Hoechst staining based assay; type: functional, cell-based
MCF7 [15] = experiment: Induction of apoptosis in human MCF7 cells harboring wild-type p53 assessed as increase in early apoptosis at 2 times IC50 after 24 hrs by YoPro/propidium iodide/Hoechst staining based assay; type: functional, cell-based
MCF7 [16] = experiment: Induction of apoptosis in human MCF7 cells harboring wild-type p53 assessed as increase in late apoptosis at 2 times IC50 after 24 hrs by YoPro/propidium iodide/Hoechst staining based assay; type: functional, cell-based
HCT-116 [17] = experiment: Induction of apoptosis in human HCT116 cells harboring wild-type p53 assessed as increase in cleaved caspase3 at 2 times IC50 after 48 hrs by Hoechst staining based assay; type: functional, cell-based
PC-3 [18] = experiment: Induction of apoptosis in human PC3 cells harboring p53 mutant assessed as increase in cleaved caspase3 at 2 times IC50 after 48 hrs by Hoechst staining based assay; type: functional, cell-based
MDA-MB-231 [19] = experiment: Induction of apoptosis in human MDA-MB-231 cells harboring p53 mutant assessed as increase in cleaved caspase3 at 2 times IC50 after 24 hrs by Hoechst staining based assay; type: functional, cell-based
HCT-116 [20] = experiment: Induction of apoptosis in human HCT116 cells harboring wild-type p53 assessed as upregulation of p21 measured after 48 hrs by Hoechst staining based fluorescence assay; type: functional, cell-based
MCF7 [21] = experiment: Induction of apoptosis in human MCF7 cells harboring wild-type p53 assessed as upregulation of p21 measured after 48 hrs by Hoechst staining based fluorescence assay; type: functional, cell-based
HCT-116 [22] = experiment: Induction of apoptosis in human HCT116 cells harboring wild-type p53 assessed as upregulation of cyclinB1 measured after 48 hrs by Hoechst staining based assay; type: functional, cell-based
MCF7 [23] = experiment: Induction of apoptosis in human MCF7 cells harboring wild-type p53 assessed as upregulation of cyclinB1 measured after 18 hrs by Hoechst staining based assay; type: functional, cell-based
PC-3 [24] = experiment: Induction of apoptosis in human PC3 cells harboring p53 mutant assessed as upregulation of cyclinB1 after 48 hrs by Hoechst staining based assay; type: functional, cell-based
MDA-MB-231 [25] = experiment: Induction of apoptosis in human MDA-MB-231 cells harboring p53 mutant assessed as upregulation of cyclinB1 after 18 hrs by Hoechst staining based assay; type: functional, cell-based
Huh-7 [26] = experiment: Cytotoxicity against human HuH7 cells assessed as cell viability after 48 hrs by Hoechst 33342 staining based assay; type: functional; conditions: Huh-7, 48 h
Caco-2 [27] = experiment: Cytotoxicity against human Caco2 cells assessed as cell viability after 48 hrs by Hoechst 33342 staining based assay; type: functional; conditions: Caco-2, 48 h
MDA-MB-231 [28] = experiment: Cytotoxicity against human MDA-MB-231 cells assessed as cell viability after 48 hrs by Hoechst 33342 staining based assay; type: functional; conditions: MDA-MB-231, 48 h
HCT-116 [29] = experiment: Cytotoxicity against human HCT116 cells assessed as cell viability after 48 hrs by Hoechst 33342 staining based assay; type: functional; conditions: HCT-116, 48 h
PC-3 [30] = experiment: Cytotoxicity against human PC3 cells assessed as cell viability after 48 hrs by Hoechst 33342 staining based assay; type: functional; conditions: PC-3, 48 h
NCI-H727 [31] = experiment: Cytotoxicity against human NCI-H727 cells assessed as cell viability after 48 hrs by Hoechst 33342 staining based assay; type: functional; conditions: NCI-H727, 48 h
HaCaT [32] = experiment: Cytotoxicity against human HaCaT cells assessed as cell viability after 48 hrs by Hoechst 33342 staining based assay; type: functional
Fibroblast = experiment: Cytotoxicity against human fibroblasts assessed as cell viability after 48 hrs by Hoechst 33342 staining based assay
RL = experiment: Cytotoxicity against human RL assessed as cell viability after 48 hrs by Hoechst 33342 staining based assay; type: functional
MCF7 [33] = experiment: Cytotoxicity against human MCF7 assessed as cell viability after 48 hrs by Hoechst 33342 staining based assay; type: functional; conditions: MCF7, 48 h
[34] = Selectivity index, ratio of IC50 for human fibroblasts to IC50 for human HuH7 cells
[35] = Selectivity index, ratio of IC50 for human fibroblasts to IC50 for human Caco2 cells
[36] = Selectivity index, ratio of IC50 for human fibroblasts to IC50 for human MDA-MB-231 cells
[37] = Selectivity index, ratio of IC50 for human fibroblasts to IC50 for human HCT116 cells
[38] = Selectivity index, ratio of IC50 for human fibroblasts to IC50 for human PC3 cells
[39] = Selectivity index, ratio of IC50 for human fibroblasts to IC50 for human NCI-H727 cells
[40] = Selectivity index, ratio of IC50 for human fibroblasts to IC50 for human HaCaT cells
[41] = Selectivity index, ratio of IC50 for human fibroblasts to IC50 for human RL cells
[42] = Selectivity index, ratio of IC50 for human fibroblasts to IC50 for human MCF7 cells

COc1cc(OC)c(C(=O)/C=C/c2ccc(O)cc2)c(OC)c1
viability at 50 µM (Huh-7 [1]): 45% | viability at 50 µM (Caco-2 [2]): 24% | viability at 50 µM (MDA-MB-231 [3]): 32% | viability at 50 µM (HCT-116 [4]): 17% | viability at 50 µM (PC-3 [5]): 33% | viability at 50 µM (NCI-H727 [6]): 42% | viability at 50 µM (HaCaT [7]): 16% | viability at 48 h, 50 µM [8]: 65%

COc1cc(O)c(C(=O)/C=C/c2ccc(Br)cc2)c(OC)c1
viability at 50 µM (Huh-7 [1]): > 80% | viability at 50 µM (Caco-2 [2]): > 80% | viability at 50 µM (MDA-MB-231 [3]): > 80% | viability at 50 µM (HCT-116 [4]): > 80% | viability at 50 µM (PC-3 [5]): 58% | viability at 50 µM (NCI-H727 [6]): 72% | viability at 50 µM (HaCaT [7]): 66% | viability at 48 h, 50 µM [8]: > 80% | Activity (HCT-116 [9]): inactive | Activity (HCT-116 [10]): inactive | Activity (PC-3 [11]): inactive | Activity (PC-3 [12]): inactive | Activity (MDA-MB-231 [13]): inactive | Activity (MDA-MB-231 [14]): inactive | Activity (MCF7 [15]): inactive | Activity (MCF7 [16]): inactive | Activity (HCT-116 [17]): inactive | Activity (PC-3 [18]): inactive | Activity (MDA-MB-231 [19]): inactive | Activity (HCT-116 [20]): inactive | Activity (MCF7 [21]): inactive | Activity (HCT-116 [22]): inactive | Activity (MCF7 [23]): inactive | Activity (PC-3 [24]): inactive | Activity (MDA-MB-231 [25]): inactive

COc1ccc(/C=C/C(=O)c2c(O)cc(OC)cc2OC)cc1 [FLAVOKAWAIN A]
viability at 50 µM (Huh-7 [1]): 50% | viability at 50 µM (Caco-2 [2]): 32% | viability at 50 µM (MDA-MB-231 [3]): 58% | viability at 50 µM (HCT-116 [4]): 20% | viability at 50 µM (PC-3 [5]): 43% | viability at 50 µM (NCI-H727 [6]): 40% | viability at 50 µM (HaCaT [7]): 35% | viability at 48 h, 50 µM [8]: 67%

COc1cc(OC)c(C(=O)/C=C/c2ccc(C(=O)O)cc2)c(OC)c1
viability at 50 µM (Huh-7 [1]): 38% | viability at 50 µM (Caco-2 [2]): 25% | viability at 50 µM (MDA-MB-231 [3]): 68% | viability at 50 µM (HCT-116 [4]): 7% | viability at 50 µM (PC-3 [5]): 39% | viability at 50 µM (NCI-H727 [6]): 23% | viability at 50 µM (HaCaT [7]): 59% | viability at 48 h, 50 µM [8]: 57%

COc1cc(O)c(C(=O)/C=C/c2ccc(C(=O)O)cc2)c(OC)c1
viability at 50 µM (Huh-7 [1]): > 80% | viability at 50 µM (Caco-2 [2]): > 80% | viability at 50 µM (MDA-MB-231 [3]): > 80% | viability at 50 µM (HCT-116 [4]): > 80% | viability at 50 µM (PC-3 [5]): > 80% | viability at 50 µM (NCI-H727 [6]): > 80% | viability at 50 µM (HaCaT [7]): > 80% | viability at 48 h, 50 µM [8]: > 80%

COc1cc(O)c(C(=O)/C=C/c2ccc(N(C)C)cc2)c(OC)c1
viability at 50 µM (Huh-7 [1]): > 80% | viability at 50 µM (Caco-2 [2]): > 80% | viability at 50 µM (MDA-MB-231 [3]): > 80% | viability at 50 µM (HCT-116 [4]): > 80% | viability at 50 µM (PC-3 [5]): > 80% | viability at 50 µM (NCI-H727 [6]): > 80% | viability at 50 µM (HaCaT [7]): > 80% | viability at 48 h, 50 µM [8]: > 80%

COc1cc(O)c(C(=O)/C=C/c2ccc(Cl)cc2)c(OC)c1
viability at 50 µM (Huh-7 [1]): > 80% | viability at 50 µM (Caco-2 [2]): > 80% | viability at 50 µM (MDA-MB-231 [3]): > 80% | viability at 50 µM (HCT-116 [4]): > 80% | viability at 50 µM (PC-3 [5]): > 80% | viability at 50 µM (NCI-H727 [6]): > 80% | viability at 50 µM (HaCaT [7]): > 80% | viability at 48 h, 50 µM [8]: > 80%

COc1cc(OC)c(C(=O)/C=C/c2ccccc2OC)c(OC)c1
viability at 50 µM (Huh-7 [1]): 6% | viability at 50 µM (Caco-2 [2]): 5% | viability at 50 µM (MDA-MB-231 [3]): 11% | viability at 50 µM (HCT-116 [4]): 0% | viability at 50 µM (PC-3 [5]): 32% | viability at 50 µM (NCI-H727 [6]): 1% | viability at 50 µM (HaCaT [7]): 23% | viability at 48 h, 50 µM [8]: 77% | IC50 (Huh-7 [26]): 9.8 µM | IC50 (Caco-2 [27]): 4.5 µM | IC50 (MDA-MB-231 [28]): 13 µM | IC50 (HCT-116 [29]): 4.2 µM | IC50 (PC-3 [30]): 8.1 µM | IC50 (NCI-H727 [31]): 4 µM | IC50 (HaCaT [32]): 8.7 µM | IC50 (Fibroblast): 8.2 µM | IC50 (RL): 9 µM | IC50 (MCF7 [33]): 8.9 µM | Ratio IC50 [34]: 0.8 | Ratio IC50 [35]: 1.8 | Ratio IC50 [36]: 0.6 | Ratio IC50 [37]: 2 | Ratio IC50 [38]: 1 | Ratio IC50 [39]: 2.1 | Ratio IC50 [40]: 0.9 | Ratio IC50 [41]: 0.9 | Ratio IC50 [42]: 0.9
